The values below come from ChEMBL document CHEMBL1146741, “Cycloalkyl[b][1,4]benzodiazepinoindoles are agonists at the human 5-HT2C receptor” (Bioorg Med Chem Lett, 2004).

Assay [1] has as its target Sodium-dependent serotonin transporter (Rattus norvegicus) (UniProt P31652). Description: Percent binding affinity against serotonin transporter. To be noted: concentration not given here.
In assay [2] the target is 5-hydroxytryptamine receptor 2B (Homo sapiens) (UniProt P41595). Description: Binding affinity against 5-hydroxytryptamine 2B receptor.

The structures appear in SMILES notation. Some results are limits rather than exact numbers.

Chain of Sodium-dependent serotonin transporter (Rattus norvegicus) (P31652 whole entry, looked up): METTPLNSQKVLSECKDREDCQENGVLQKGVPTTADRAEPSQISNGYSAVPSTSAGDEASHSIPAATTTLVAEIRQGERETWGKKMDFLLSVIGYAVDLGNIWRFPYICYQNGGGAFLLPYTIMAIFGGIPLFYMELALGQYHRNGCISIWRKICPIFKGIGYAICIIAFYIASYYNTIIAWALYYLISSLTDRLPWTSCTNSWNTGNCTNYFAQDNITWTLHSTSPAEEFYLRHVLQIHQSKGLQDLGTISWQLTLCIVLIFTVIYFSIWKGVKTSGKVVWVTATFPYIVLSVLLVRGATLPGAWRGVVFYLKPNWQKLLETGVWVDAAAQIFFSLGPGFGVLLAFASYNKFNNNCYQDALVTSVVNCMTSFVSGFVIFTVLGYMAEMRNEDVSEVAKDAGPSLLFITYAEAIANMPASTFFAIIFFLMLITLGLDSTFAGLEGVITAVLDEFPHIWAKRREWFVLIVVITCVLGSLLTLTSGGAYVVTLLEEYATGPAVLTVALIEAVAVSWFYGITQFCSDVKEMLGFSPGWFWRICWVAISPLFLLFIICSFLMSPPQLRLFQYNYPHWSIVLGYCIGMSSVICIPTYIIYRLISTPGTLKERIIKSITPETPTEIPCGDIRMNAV

Take `c1cc2c3c(c1)c1c(n3CCNC2)CCCCCC1`: the inhibition in assay [1] came to 14%. Moreover, in assay [2], the Ki is over 5 µM.

Usually inhibition stands for the percentage by which the read-out fell short of the control. A low value points to little suppression. One may read the Ki as the equilibrium dissociation constant of an inhibitor or competing ligand from its target. Lower therefore signals a stronger hold on the target.
